Data as given in the supplement of paper PMC10307832.

What was measured:
Assay in all cases: relative viability (nuclei count vs DMSO), 5 days (fraction); higher = more cells survive
Bexarotene + Vorinostat = compound: C=C(c1ccc(C(=O)O)cc1)c1cc2c(cc1C)C(C)(C)CCC2(C)C [Bexarotene] + O=C(CCCCCCC(=O)Nc1ccccc1)NO [Vorinostat] (partner 1 µM)
In short: (§1)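 Lung cancer cell lines, seeded in 1536-well plates, were treated the following day by pin tool with a single drug or with five library-drug doses (not always all listed) in √10 steps on top of a fixed anchor-drug dose. Cells were fixed and nuclei stained in one step after 5 days, and nuclei were counted. Relative viability is the nuclei count for treated wells divided by that for vehicle wells, reported as medians of duplicate plates.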

Bexarotene + Palbociclib = compound: C=C(c1ccc(C(=O)O)cc1)c1cc2c(cc1C)C(C)(C)CCC2(C)C [Bexarotene] + CC(=O)c1c(C)c2cnc(Nc3ccc(N4CCNCC4)cn3)nc2n(C2CCCC2)c1=O [Palbociclib] (partner 0.5 µM)
In short: as §1

Bexarotene + Dasatinib = compound: C=C(c1ccc(C(=O)O)cc1)c1cc2c(cc1C)C(C)(C)CCC2(C)C [Bexarotene] + Cc1nc(Nc2ncc(C(=O)Nc3c(C)cccc3Cl)s2)cc(N2CCN(CCO)CC2)n1 [Dasatinib] (partner 0.075 µM)
In short: as §1

Bexarotene + Pemetrexed = compound: C=C(c1ccc(C(=O)O)cc1)c1cc2c(cc1C)C(C)(C)CCC2(C)C [Bexarotene] + Nc1nc2[nH]cc(CCc3ccc(C(=O)N[C@@H](CCC(=O)O)C(=O)O)cc3)c2c(=O)[nH]1 [Pemetrexed] (partner 0.2 µM)
In short: as §1

Cell Line	relative viability (Bexarotene + Vorinostat; first compound 0.08 µM)	relative viability (Bexarotene + Vorinostat; first compound 0.253 µM)	relative viability (Bexarotene + Vorinostat; first compound 0.8 µM)	relative viability (Bexarotene + Vorinostat; first compound 2.53 µM)	relative viability (Bexarotene + Vorinostat; first compound 8 µM)	relative viability (Bexarotene + Palbociclib; first compound 0.08 µM)	relative viability (Bexarotene + Palbociclib; first compound 0.253 µM)	relative viability (Bexarotene + Palbociclib; first compound 0.8 µM)	relative viability (Bexarotene + Palbociclib; first compound 2.53 µM)	relative viability (Bexarotene + Palbociclib; first compound 8 µM)	relative viability (Bexarotene + Dasatinib; first compound 0.08 µM)	relative viability (Bexarotene + Dasatinib; first compound 0.253 µM)	relative viability (Bexarotene + Dasatinib; first compound 0.8 µM)	relative viability (Bexarotene + Dasatinib; first compound 2.53 µM)	relative viability (Bexarotene + Dasatinib; first compound 8 µM)	relative viability (Bexarotene + Pemetrexed; first compound 0.08 µM)	relative viability (Bexarotene + Pemetrexed; first compound 0.253 µM)	relative viability (Bexarotene + Pemetrexed; first compound 0.8 µM)	relative viability (Bexarotene + Pemetrexed; first compound 2.53 µM)	relative viability (Bexarotene + Pemetrexed; first compound 8 µM)
201T	1.03	0.997	0.894	0.888	0.802	0.345	0.33	0.315	0.361	0.312	0.584	0.569	0.54	0.602	0.565	0.385	0.295	0.322	0.355	0.347
A-427	0.861	0.81	0.83	0.746	0.903	0.48	0.47	0.467	0.444	0.487	0.726	0.614	0.611	0.627	0.684	0.938	0.872	0.794	0.773	0.904
ABC-1	1.07	0.883	0.742		1.03	0.617	0.676	0.662		0.655	0.521	0.715	0.635	0.445	0.659					
BEN	0.685	0.583	0.531	0.531	0.547	0.444	0.467	0.442	0.456	0.502	0.295	0.3	0.326	0.271	0.278	0.883	0.629	0.784	0.637	0.725
CAL-12T	0.723	0.837	0.887	0.529	0.655	0.442	0.465	0.342	0.417	0.441	0.296	0.327	0.332	0.302	0.271	1.15	1.19	1.21	1.13	1.06
COR-L23	0.54	0.539	0.411	0.426	0.337	0.283	0.274	0.279	0.257	0.274	0.498	0.557	0.503	0.606	0.203	0.198	0.206	0.198	0.214	0.202
COR-L 105	0.844	0.896	0.855	0.874	0.927	0.382	0.368	0.409	0.421	0.392	0.456	0.363	0.354	0.333	0.495	0.983	1.16	1.14	1.17	1.14
ChaGo-K-1	0.848	0.886	0.844	0.818	0.918	1.09	0.983	0.99	0.967	1.01	0.568	0.604	0.638	0.661	0.593	0.274	0.249	0.251	0.253	0.275
EKVX	0.69	0.811	0.709	0.819	0.542	0.37	0.366	0.384	0.438	0.362	0.515	0.512	0.567	0.523	0.463	0.423	0.54	0.355	0.43	0.362
EMC-BAC-2	0.628	0.462	0.537		0.522	0.538	0.529	0.508		0.502	0.328	0.316	0.294	0.309	0.334	0.44	0.441	0.394		0.419
EPLC-272H	0.398	0.671	0.492	0.681	0.484	0.313	0.358	0.312	0.314	0.354	0.388	0.312	0.369	0.352	0.383	0.27	0.346	0.218	0.395	0.325
H3255	0.759	0.913	0.843	0.787	0.869	0.333	0.335	0.316	0.344	0.346	0.406	0.311	0.385	0.338	0.334	0.585	0.577	0.551	0.554	0.558
HARA	0.655	0.512	0.584	0.606	0.51	0.269	0.239	0.243	0.294	0.277	0.324	0.268	0.332	0.407	0.567	0.292	0.31	0.217	0.248	0.244
HCC-15	0.877	0.892	0.823	0.889	0.81	0.779	0.925	0.753	0.794	0.726	0.695	0.741	0.648	0.647	0.683	0.218	0.229	0.214	0.184	0.207
HCC-44	1.09	1.05	0.971	1.04	1.16	1	1.03	0.836	0.93	0.946						0.694	0.738	0.658	0.741	0.65
HCC-78	0.425	0.523	0.513	0.402	0.459	0.518	0.416	0.403	0.473	0.509	0.402	0.264	0.278	0.33	0.363	0.903	0.636	0.821	0.919	0.89
HCC-366	0.361	0.487	0.329	0.276	0.328	0.424	0.42	0.365	0.416	0.4	0.737	0.67	0.613	0.649	0.621	0.203	0.14	0.2	0.141	0.17
HCC-827	0.906	0.674	0.775	0.781	0.821	0.508	0.497	0.466	0.482	0.497	0.284	0.465	0.419	0.35	0.344	0.285	0.271	0.263	0.317	0.245

Cell Line	relative viability (Bexarotene + Vorinostat; first compound 0.08 µM)	relative viability (Bexarotene + Vorinostat; first compound 0.253 µM)	relative viability (Bexarotene + Vorinostat; first compound 0.8 µM)	relative viability (Bexarotene + Vorinostat; first compound 2.53 µM)	relative viability (Bexarotene + Vorinostat; first compound 8 µM)	relative viability (Bexarotene + Palbociclib; first compound 0.08 µM)	relative viability (Bexarotene + Palbociclib; first compound 0.253 µM)	relative viability (Bexarotene + Palbociclib; first compound 0.8 µM)	relative viability (Bexarotene + Palbociclib; first compound 2.53 µM)	relative viability (Bexarotene + Palbociclib; first compound 8 µM)	relative viability (Bexarotene + Dasatinib; first compound 0.08 µM)	relative viability (Bexarotene + Dasatinib; first compound 0.253 µM)	relative viability (Bexarotene + Dasatinib; first compound 0.8 µM)	relative viability (Bexarotene + Dasatinib; first compound 2.53 µM)	relative viability (Bexarotene + Dasatinib; first compound 8 µM)	relative viability (Bexarotene + Pemetrexed; first compound 0.08 µM)	relative viability (Bexarotene + Pemetrexed; first compound 0.253 µM)	relative viability (Bexarotene + Pemetrexed; first compound 0.8 µM)	relative viability (Bexarotene + Pemetrexed; first compound 2.53 µM)	relative viability (Bexarotene + Pemetrexed; first compound 8 µM)
HOP-62	0.808	0.831	0.709	0.555	0.624	0.502	0.516	0.451	0.409	0.491	0.677	0.641	0.428	0.606	0.57	0.332	0.297	0.336	0.314	0.361
IA-LM	0.79	0.817	0.756	0.718	0.7															
LC-2-ad	0.82	0.845	0.744	0.703	0.665	0.427	0.5	0.473	0.434	0.46	0.696	0.602	0.575	0.497	0.625	0.294	0.279	0.28	0.247	0.302
LCLC-97TM1	1.02	0.804	0.586	0.656	0.678	0.211	0.245	0.168	0.177	0.185	1.05	0.795	0.815	0.773	0.822	0.193	0.159	0.172	0.202	0.168
LCLC-103H	0.891	0.976	0.691	0.771	0.875	0.495	0.544	0.453	0.476	0.475	0.489	0.567	0.419	0.525	0.49	0.462	0.453	0.462	0.436	0.472
LK-2	0.337	0.278	0.342	0.277	0.332	0.656	0.825	0.702	0.695	0.669	0.314	0.474	0.39		0.465	0.353	0.292	0.285	0.275	0.238
LOU-NH91	0.973	0.956	0.933	0.836	0.849	0.544	0.507	0.485	0.528	0.551	0.584	0.613	0.467	0.521	0.502	0.449	0.43	0.399	0.399	0.386
LU99A	0.597	0.539	0.551	0.527	0.612	0.449	0.395	0.355	0.468	0.371	0.748	0.703	0.711	0.613	0.699	0.19	0.194	0.206	0.189	0.171
LXF-289	0.906	0.907	0.861	0.789	0.935	0.636	0.63	0.605	0.593	0.639	0.213	0.195	0.179	0.127	0.155	1.04	1.12	1.16	0.974	1.04
NCI-H23	0.715	0.782	0.599	0.453	0.541	0.554	0.567	0.571	0.555	0.543	0.944	0.594	0.635	0.884	0.691	0.948	0.715	0.669	0.626	0.686
NCI-H322M	0.978	0.983	0.945	0.757	0.934	0.437	0.469	0.487	0.531	0.532	0.282	0.266	0.264	0.261	0.3	0.698	0.611	0.574	0.626	0.695
NCI-H358	0.7	0.798	0.667	0.934	0.703	0.129	0.138	0.154	0.124	0.138	0.224	0.33	0.251	0.234	0.259	0.182	0.184	0.144	0.167	0.158
NCI-H596	0.655	0.69	0.414	0.533	0.602						0.671	0.654	0.773	0.907	0.704	0.47	0.482	0.451	0.456	0.736
NCI-H727	1.46	1.16	1.26	1.18	0.971	0.683	0.578	0.595	0.696	0.711	0.405	0.311	0.388	0.316	0.37					
NCI-H1563											0.489	0.423	0.449	0.469	0.487	0.753	0.632	0.745	0.682	0.85
NCI-H1648	0.477	0.422	0.455	0.518	0.639	0.222	0.313	0.229	0.235	0.23						0.897	0.738	0.676	0.585	0.619
NCI-H1792						0.706	0.611	0.616	0.588	0.607	0.82	0.769	0.764	0.786	0.689	1.1	0.848	0.487	0.482	0.455
